Reference: ChEMBL document CHEMBL6121062, “Discovery, Optimization, and Preclinical Pharmacology of EP652, a METTL3 Inhibitor with Efficacy in Liquid and Solid Tumor Models” (J Med Chem, 2025)

Key:
[1] = Lipophilicity, logD of compound in 1-octanol/PBS at pH 7.4 incubated for 24 hrs by HPLC analysis; type: physicochemical
[2] = system: Kasumi 1; assay: Antiproliferative activity against human Kasumi 1 cells assessed as inhibition of cell viability incubated for 72 hrs by ATPlite assay; type: functional, cell-based; conditions: Kasumi 1, 72 h
[3] = Unbound clearance in Sprague-Dawley rat at 1 mg/kg/day, iv measured for 24 hrs by LC-MS/MS analysis; type: ADME, organism-based; conditions: in vivo
[4] = Unbound AUC in Sprague-Dawley rat at 1 mg/kg/day, iv measured for 24 hrs by LC-MS/MS analysis; type: ADME, organism-based; conditions: in vivo
[5] = biological target: METTL3/METTL14 (Homo sapiens, UniProt Q86U44); assay: Displacement of [3H]-SAM from METTL3/METTL14 (unknown origin) using 5'biotinylated-UACACUCGAUCUGGACUAAAGGUGCUC-3' RNA as substrate preincubated for 10 mins followed by substrate/[3H]-SAM addition measured after 90 mins by SPA; type: protein-complex assay
METTL3/METTL14, sequence (Q86U44 whole entry): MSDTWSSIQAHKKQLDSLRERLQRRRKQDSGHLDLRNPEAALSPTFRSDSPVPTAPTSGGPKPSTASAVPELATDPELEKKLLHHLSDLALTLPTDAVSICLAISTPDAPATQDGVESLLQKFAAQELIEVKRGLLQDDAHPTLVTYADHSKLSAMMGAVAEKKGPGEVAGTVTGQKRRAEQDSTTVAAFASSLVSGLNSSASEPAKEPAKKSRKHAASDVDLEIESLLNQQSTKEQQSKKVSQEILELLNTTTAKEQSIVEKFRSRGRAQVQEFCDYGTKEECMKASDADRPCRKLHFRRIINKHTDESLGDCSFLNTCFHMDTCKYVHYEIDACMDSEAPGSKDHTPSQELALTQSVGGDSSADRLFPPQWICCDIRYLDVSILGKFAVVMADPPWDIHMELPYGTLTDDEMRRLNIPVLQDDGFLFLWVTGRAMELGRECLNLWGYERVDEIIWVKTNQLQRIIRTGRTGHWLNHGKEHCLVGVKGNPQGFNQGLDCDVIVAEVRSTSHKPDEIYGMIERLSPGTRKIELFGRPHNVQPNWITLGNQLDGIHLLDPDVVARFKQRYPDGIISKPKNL
METTL3/METTL14, sequence (Q9HCE5 whole entry, further chain): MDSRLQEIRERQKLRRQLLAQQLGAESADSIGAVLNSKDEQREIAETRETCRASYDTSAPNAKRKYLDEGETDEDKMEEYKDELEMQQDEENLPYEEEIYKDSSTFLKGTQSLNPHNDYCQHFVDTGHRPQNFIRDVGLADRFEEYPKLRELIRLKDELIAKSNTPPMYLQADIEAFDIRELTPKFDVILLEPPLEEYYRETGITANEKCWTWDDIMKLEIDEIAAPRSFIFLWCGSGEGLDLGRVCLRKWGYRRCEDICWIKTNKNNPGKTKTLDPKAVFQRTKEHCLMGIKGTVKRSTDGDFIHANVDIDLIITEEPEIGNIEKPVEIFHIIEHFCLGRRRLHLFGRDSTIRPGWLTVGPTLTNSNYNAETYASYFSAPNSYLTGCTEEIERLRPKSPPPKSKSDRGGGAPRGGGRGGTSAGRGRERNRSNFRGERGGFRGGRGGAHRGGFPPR

Row | logD at 24 h [1] | CL free [3] [mL/min/kg] | fAUC [4] [µM·min] | IC50 [5] [nM] | SMILES | IC50 [2] [µM]
1 | 2.59 |  |  |  | COc1cc(-c2cn(Cc3ccc(N4CCC[C@@H](N(C)CC5CCC5)C4)nn3)nn2)c2cn[nH]c2c1 | 3.13
2 | 2.49 | 1913 | 1 | 2 | CC(n1cc(-c2cncc(N3CCCC3)c2)nn1)n1ccc(N2CCC[C@@H](NCC3CCC3)C2)cc1=O (some centres not stated) | 0.007
3 | 0.87 |  |  | 39 | CC(n1cc(-c2cccnc2)nn1)n1ccc(N2CCC[C@@H](NCC3CCC3)C2)cc1=O (some centres not stated) | 8.12
4 | 3.06 |  |  | 4 | COc1cc(-c2cn(Cc3ccc(N4CCC[C@@H](NC5CC56CCC6)C4)nn3)nn2)c2cn[nH]c2c1 (some centres not stated) | 1.1
5 | 0.88 |  |  | 124 | COc1cncc(-c2cn(Cc3ccc(N4CCC[C@@H](CNC5CCC5)C4)nn3)nn2)c1 | > 30
6 | 1.55 |  |  | 215 | COc1cncc(-c2cn(Cc3ccc(C4CCCC(NCC5CCC5)C4)nn3)nn2)c1 (configuration not stated) | > 30
7 | 1.93 | 1487 | 1.3 | 3 | CC(n1cc(-c2cncc(N3CCCC3)c2)nn1)n1ccc(N2CCC[C@@H](NCC3CC3)C2)cc1=O (some centres not stated) | 0.011
8 | 1.85 |  |  | 205 | COc1cncc(-c2cn(Cc3ccc(N4CC5(CCCC5NCC5CCC5)C4)nn3)nn2)c1 (configuration not stated) | > 30
9 | 0.97 |  |  |  | CC(n1cc(-c2cncc(C#N)c2)nn1)n1ccc(N2CCC[C@@H](NCC3CCC3)C2)cc1=O (some centres not stated) | > 30
10 | 1.84 |  |  | > 30000 | COc1cncc(-c2cnn(C(C)n3ccc(N4CCC[C@@H](NCC5CCC5)C4)cc3=O)n2)c1 (some centres not stated) | > 30
11 | 1.15 |  |  | > 30000 | COc1cncc(-c2cn(Cc3ccc(N4CCCC(NCC5CCC5)C4=O)nn3)nn2)c1 (configuration not stated) | > 30
12 | 1.63 |  |  | 7 | COc1cncc(-c2cc(C(C)n3ccc(N4CCC[C@@H](NCC5CCC5)C4)cc3=O)on2)c1 (some centres not stated) | 1.84
13 | 2.04 |  |  | 6 | COc1cncc(-c2cn(Cc3ccc(N4CCC[C@@H](NCC5CCC5)C4)cc3)nn2)c1 | 0.875
14 | 1.12 |  |  | 7 | COc1cncc(-n2cc(C(C)n3ccc(N4CCC[C@@H](NCC5CCC5)C4)cc3=O)nn2)c1 (some centres not stated) | 1.93
15 | 1.46 |  |  | 7 | COc1cncc(-c2cn(Cc3ccc(N4CCC[C@@H](NCC5CCC5)C4)nc3)nn2)c1 | 1.2
16 | 1.18 |  |  | 50 | COc1cncc(-c2cn(Cc3ccc(N4CCCCC(NCC5CCC5)C4)nn3)nn2)c1 (configuration not stated) | > 30
17 | 1.01 |  |  | 243 | COc1cc(-c2cn(Cc3ccc(N4CCC[C@@H](N)C4)nn3)nn2)c2cn[nH]c2c1 | > 30
18 | 2.22 |  |  |  | COc1cccc(-c2cn(C(C)n3ccc(N4CCC[C@@H](NCC5CCC5)C4)cc3=O)nn2)c1 (some centres not stated) | > 30
19 | 1.95 |  |  | 235 | COc1cc(-c2cn(Cc3ccc(N4CCC(NCC5CCC5)C4)nn3)nn2)c2cn[nH]c2c1 (configuration not stated) | 15.3
20 | 1.69 |  |  | > 30000 | COc1ccc(-c2cn(C(C)n3ccc(N4CCC[C@@H](NCC5CCC5)C4)cc3=O)nn2)cn1 (some centres not stated) | > 30
21 | 1.92 |  |  | 3 | COc1cc(-c2cn(Cc3ccc(N4CCC[C@@H](NCC(C)C)C4)nn3)nn2)c2cn[nH]c2c1 | 1.76

Row | logD at 24 h [1] | CL free [3] [mL/min/kg] | fAUC [4] [µM·min] | IC50 [5] [nM] | SMILES | IC50 [2] [µM]
22 | 2.43 |  |  | 12 | COc1cncc(-c2cn(C(c3ccc(N4CCC[C@@H](NCC5CCC5)C4)nn3)C(F)(F)F)nn2)c1 (some centres not stated) | 12.2
23 | 1.7 |  |  | 25 | COc1cncc(-c2cn(C3(c4ccc(N5CCC[C@@H](NCC6CCC6)C5)nn4)CC3)nn2)c1 | 9.88
24 | 1.52 |  |  | 13 | COc1cncc(-c2nnn(C(C)n3ccc(N4CCC[C@@H](NCC5CCC5)C4)cc3=O)n2)c1 (some centres not stated) | 5.5
25 | 1.63 |  |  | 2 | COc1cc(-c2cn(Cc3ccc(N4CCC[C@@H](NCC5CC5)C4)nn3)nn2)c2cn[nH]c2c1 | 1.05
26 | 1.88 |  |  |  | COc1cc(-c2cn(Cc3ccc(N4CCC[C@@H](NC5CCCC5)C4)nn3)nn2)c2cn[nH]c2c1 | 3.43
27 | 1.52 | 487 |  |  | COc1cncc(-c2cn(C(C)n3ccc(N4CCC[C@@H](NCC5CCC5)C4)cc3=O)cn2)c1 (some centres not stated) | 0.453
28 | 1.89 |  |  | 24 | COc1cc(-c2cn(Cc3ccc(N4CCC[C@H](NCC5CCC5)C4)nn3)nn2)c2cn[nH]c2c1 | 3.41
29 | 1.71 |  |  | 5 | COc1cc(-c2cn(Cc3ccc(N4CCC[C@@H](NC5CCC5)C4)nn3)nn2)c2cn[nH]c2c1 | 2.74
30 | 1.37 |  |  | 5 | COc1cncc(-c2ncn(C(C)n3ccc(N4CCC[C@@H](NCC5CCC5)C4)cc3=O)n2)c1 (some centres not stated) | 1.61
31 | 0.62 |  |  | 5 | COc1cnnc(-c2cn(C(C)n3ccc(N4CCC[C@@H](NCC5CCC5)C4)cc3=O)nn2)c1 (some centres not stated) | 5.42
32 | 1.06 |  |  | 26 | COc1cncc(-c2cn(Cn3ncc(N4CCC[C@@H](NCC5CCC5)C4)cc3=O)nn2)c1 | 11.8
33 | 1.53 |  |  | 8 | CC(n1cc(-c2cccn3cncc23)nn1)n1ccc(N2CCC[C@@H](NCC3CCC3)C2)cc1=O (some centres not stated) | 5.4
34 | 1.64 |  |  | 563 | COc1cc(-c2cn(Cc3ccc(N4CCC(NCC5CCC5)CC4)nn3)nn2)c2cn[nH]c2c1 | > 30
35 | 1.79 | 803 | 2.2 |  | CC(n1cc(-c2cncc(N(C)C)c2)nn1)n1ccc(N2CCC[C@@H](NCC3CCC3)C2)cc1=O (some centres not stated) | 0.044
36 | 1.6 | 608 |  | 1 | COc1cncc(-n2cc(C(C)n3ccc(N4CCC[C@@H](NCC5CCC5)C4)cc3=O)cn2)c1 (some centres not stated) | 0.306
37 | 1.54 |  |  | 2300 | COc1cncc(-c2cn(Cc3ccc(N4CC5(CCC5NCC5CCC5)C4)nn3)nn2)c1 (configuration not stated) | > 30
38 | 1.45 | 480 |  | 3 | COc1cncc(-c2nnc(C(C)n3ccc(N4CCC[C@@H](NCC5CCC5)C4)cc3=O)s2)c1 (some centres not stated) | 0.506
39 | 2.26 |  |  | 11 | COc1cncc(-c2cc(C(C)n3ccc(N4CCC[C@@H](NCC5CCC5)C4)cc3=O)sn2)c1 (some centres not stated) | 1.72
40 | 2.14 |  |  |  | COc1cc(-c2cn(Cc3ccc(N4CCC[C@@H](NC(C)C5CCC5)C4)nn3)nn2)c2cn[nH]c2c1 (some centres not stated) | 10.1
41 | 1.25 |  |  | > 30000 | COc1cncc(-n2cnc(C(C)n3ccc(N4CCC[C@@H](NCC5CCC5)C4)cc3=O)c2)c1 (some centres not stated) | > 30
42 | 2.61 |  |  |  | COc1cc(-c2cn(Cc3ccc(N4CCC[C@@H](NC(=O)C5CCC5)C4)nn3)nn2)c2cn[nH]c2c1 | > 30
